# What was measured:
# Cannabinoid receptor 1 = Cannabinoid receptor 1 (Homo sapiens, UniProt P21554); test: Displacement of [3H]-CP55940 from human recombinant CB1 receptor expressed in HEK293 cells after 90 mins by scintillation counting analysis; format: cell-based
# Cannabinoid receptor 2 = Cannabinoid receptor 2 (Homo sapiens, UniProt P34972); test: Displacement of [3H]-CP55940 from human recombinant CB2 receptor expressed in HEK293 cells after 90 mins by scintillation counting analysis; format: cell-based
# Homo sapiens = species on record: Homo sapiens; test: Selectivity ratio of Ki for human recombinant CB2 receptor to Ki for human recombinant CB1 receptor
# Cannabinoid receptor 1, sequence (P21554 whole entry): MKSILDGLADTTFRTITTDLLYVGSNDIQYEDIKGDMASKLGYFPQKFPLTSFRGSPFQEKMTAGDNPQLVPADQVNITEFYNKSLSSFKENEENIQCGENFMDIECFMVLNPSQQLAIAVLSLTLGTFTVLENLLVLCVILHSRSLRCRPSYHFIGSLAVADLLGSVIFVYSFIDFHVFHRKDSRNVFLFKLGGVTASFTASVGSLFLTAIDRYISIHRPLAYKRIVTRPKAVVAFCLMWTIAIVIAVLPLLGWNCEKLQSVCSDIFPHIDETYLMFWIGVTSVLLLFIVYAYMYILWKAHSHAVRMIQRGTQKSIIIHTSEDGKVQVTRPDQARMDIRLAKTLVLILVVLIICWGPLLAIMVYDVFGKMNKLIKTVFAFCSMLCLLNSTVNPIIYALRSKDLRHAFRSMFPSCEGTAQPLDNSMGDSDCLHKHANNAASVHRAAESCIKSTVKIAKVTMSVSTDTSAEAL
# Cannabinoid receptor 2, sequence (P34972 whole entry): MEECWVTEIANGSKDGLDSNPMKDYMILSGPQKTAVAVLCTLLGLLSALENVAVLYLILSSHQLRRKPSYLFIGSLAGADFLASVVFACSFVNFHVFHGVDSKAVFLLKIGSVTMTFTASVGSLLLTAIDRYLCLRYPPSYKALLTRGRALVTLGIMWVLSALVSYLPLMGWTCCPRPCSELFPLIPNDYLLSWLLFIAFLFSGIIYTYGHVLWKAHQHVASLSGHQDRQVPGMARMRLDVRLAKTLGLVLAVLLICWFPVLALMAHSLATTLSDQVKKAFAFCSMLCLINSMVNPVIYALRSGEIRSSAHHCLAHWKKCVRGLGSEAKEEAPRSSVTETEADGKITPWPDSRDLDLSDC
SMILES,Ki (Cannabinoid receptor 1),Ki (Cannabinoid receptor 2),Ratio Ki (Homo sapiens)
COC[C@@H](COC(C)=O)N(C)C(=O)CC/C=C/CCCCC(Cl)CCCCCCCl (some centres not stated),590 nM,1030 nM,2
COC[C@@H](COC(C)=O)N(C)C(=O)CC/C=C/CCCCC(Cl)CCCCCC(Cl)Cl (some centres not stated),410 nM,860 nM,2
C=CCCC/C=C/C=C(\C)CCCC/C=C/CC/C=C\C(=O)NC(CO)CO,470 nM,,
